Patent US20050209278A1, “Piperidinyl- and piperazinyl-sulfonylmethyl hydroxamic acids and their use as protease inhibitors” (priority 2002, published 2005)
Read-outs that look alike come from different tables or passages of the source.

What was measured:
Assay type in all cases: biochemical
[1] = target: T1, MMP-1 (Homo sapiens, UniProt P03956); test: MMP-1 inhibition (in vitro Ki)
T1 construct: made in house; host or cells: MMP-1-transfected HT-1080 cells (spent media)
T1 sequence (P03956 100-469): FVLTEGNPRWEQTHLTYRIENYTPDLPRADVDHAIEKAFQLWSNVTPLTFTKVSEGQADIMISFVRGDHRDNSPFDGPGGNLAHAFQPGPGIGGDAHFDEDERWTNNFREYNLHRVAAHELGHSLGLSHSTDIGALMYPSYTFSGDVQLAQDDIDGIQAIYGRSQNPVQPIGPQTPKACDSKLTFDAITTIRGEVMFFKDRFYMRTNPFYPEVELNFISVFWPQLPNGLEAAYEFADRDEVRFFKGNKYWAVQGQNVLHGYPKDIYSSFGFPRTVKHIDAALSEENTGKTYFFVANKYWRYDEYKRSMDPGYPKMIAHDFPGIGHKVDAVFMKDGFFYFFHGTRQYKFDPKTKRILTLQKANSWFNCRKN

[2] = target: T2, MMP-2 (Homo sapiens, UniProt P08253); test: MMP-2 inhibition (in vitro Ki)
T2 construct: made in house; host or cells: MMP-2-transfected p2AHT2 cells
T2 sequence (P08253 110-660): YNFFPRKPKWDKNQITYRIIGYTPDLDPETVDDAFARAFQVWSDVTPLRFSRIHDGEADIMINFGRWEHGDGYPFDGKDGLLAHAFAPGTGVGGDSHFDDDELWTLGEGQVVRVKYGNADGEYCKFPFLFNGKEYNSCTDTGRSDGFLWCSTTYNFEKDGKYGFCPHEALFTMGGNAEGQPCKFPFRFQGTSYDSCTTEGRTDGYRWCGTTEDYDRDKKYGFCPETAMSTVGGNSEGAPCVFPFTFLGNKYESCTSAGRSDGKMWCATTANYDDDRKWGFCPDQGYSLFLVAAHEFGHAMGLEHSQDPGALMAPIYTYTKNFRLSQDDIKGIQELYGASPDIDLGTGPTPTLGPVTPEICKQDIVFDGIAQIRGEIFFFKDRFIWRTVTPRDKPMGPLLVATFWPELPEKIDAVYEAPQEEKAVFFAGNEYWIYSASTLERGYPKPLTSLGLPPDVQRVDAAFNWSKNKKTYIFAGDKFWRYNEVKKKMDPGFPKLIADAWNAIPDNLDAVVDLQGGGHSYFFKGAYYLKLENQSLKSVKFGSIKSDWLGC

[3] = target: T3, MMP-9 (Homo sapiens, UniProt P14780); test: MMP-9 inhibition (in vitro Ki)
T3 construct: made in house; host or cells: MMP-9-transfected HT1080 cells (spent media)
T3 sequence (P14780 107-707 limits assumed): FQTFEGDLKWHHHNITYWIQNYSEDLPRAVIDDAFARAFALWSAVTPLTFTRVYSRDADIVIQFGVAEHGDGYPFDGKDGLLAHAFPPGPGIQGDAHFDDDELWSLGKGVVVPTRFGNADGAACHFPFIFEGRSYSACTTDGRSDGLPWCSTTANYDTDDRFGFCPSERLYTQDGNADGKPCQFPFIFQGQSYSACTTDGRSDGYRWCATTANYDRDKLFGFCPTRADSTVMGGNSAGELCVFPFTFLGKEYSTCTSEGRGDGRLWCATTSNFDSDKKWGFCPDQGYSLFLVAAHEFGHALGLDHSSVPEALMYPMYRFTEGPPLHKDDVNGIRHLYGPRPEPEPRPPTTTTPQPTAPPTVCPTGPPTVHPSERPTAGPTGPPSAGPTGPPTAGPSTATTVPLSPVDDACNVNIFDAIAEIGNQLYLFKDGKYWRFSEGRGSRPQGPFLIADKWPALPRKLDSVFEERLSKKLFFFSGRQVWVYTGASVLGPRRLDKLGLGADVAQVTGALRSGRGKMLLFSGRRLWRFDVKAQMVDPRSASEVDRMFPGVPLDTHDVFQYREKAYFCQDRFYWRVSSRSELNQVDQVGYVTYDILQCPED

[4] = target: T4, MMP-13 (Homo sapiens, UniProt P45452); test: MMP-13 inhibition (in vitro Ki)
T4 construct: made in house; host or cells: baculovirus / insect cells

[5] = target: T5, MMP-14 (Homo sapiens, UniProt P50281); test: MMP-14 inhibition (in vitro Ki)
T5 construct: The catalytic domain enzyme was expressed in E. coli inclusion bodies, solubilized in urea; made in house

[6] = target: T2, MMP-2; test: In vitro MMP inhibition, Ki determination (fluorogenic substrate II); conditions: read-out: MMP-2 Ki
Procedure: (§1) Several hydroxamic acids and salts thereof were analyzed in in vitro assays to determine their ability to inhibit the MMP cleavage of peptide substrates. […] and IC50 constants were calculated from the assayed hydroxamic acid-MMP interactions.
(§2) Human recombinant MMP-1, MMP-2, MMP-9, MMP-13, and MMP-14 were used in this assay. All enzymes were prepared in Assignee's laboratories following usual laboratory procedures. Protocols for the preparation and use of these enzymes are available in the scientific literature. See, e.g., Enzyme Nomenclature (Academic Press, San Diego, Calif., 1992) (and the citations therein). See also, Freije et al., “Molecular cloning and expression of collagenase-3, a novel human matrix metalloproteinase produced by breast carcinomas,” J Biol. Chem., 269(24), 16766-16773 (1994).
The MMP-2 proenzyme was purified by gelatin Sepharose chromatography from MMP-2-transfected p2AHT2 cells provided by Dr. Gregory Goldberg of Washington University (St. Louis, Mo.).
(§3) All MMPs were activated using 4-aminophenylmercuric acetate (“APMA”, Sigma Chemical, St. Louis, Mo.) or trypsin. MMP-9 also was activated using human recombinant MMP-3 (purified in Assignee's laboratory following standard cloning and purification techniques).
(§4) Two fluorogenic, methoxycoumarin-containing polypeptide substrates were used in the MMP inhibition assays: [drawing 427] Here, “Dpa” is 3-(2,4-dinitrophenyl)-L-2,3-diaminopropionyl group, and “MCA” is 7-methoxycoumarin-4-yl acetyl. Substrate (I) was purchased from Baychem (Redwood City, Calif.), and substrate II was prepared Assignee's laboratory. Substrate I was used in the IC50 determination assays, while substrate II was used in the Ki determination assays. In the absence of MMP inhibitory activity, either substrate is cleaved at the Gly-Leu peptide bond. This cleavage separates the highly fluorogenic peptide from the 2,4-dinitrophenyl quencher, thus resulting in increase of fluorescent intensity.
(§5) The stock solutions of the assayed hydroxamic acids (or salts thereof) were prepared in 1% dimethyl sulfoxide (DMSO). These stock solutions were diluted in Buffer A (100 mM Tris-HCl, 100 mM NaCl, 10 mM CaCl2, 0.05% polyoxyethylene 23 lauryl ether, pH 7.5) to obtain solutions with different hydroxamic acid concentrations, i.e., assay solutions with different concentrations of the assayed MMP inhibitory compound. The experiment controls contained the same amount of Buffer A/DMSO as the assayed sample, but contained no hydroxamic acid (or salt thereof).
The assays from which the Ki determinations were made were performed as follows. The assayed hydroxamic acid samples were incubated in separate wells of untreated white polystyrene plates (Nunc Nalgene International, Rochester, N.Y.), and analyzed on a Tecan SpectraFlour Plus plate reader. The excitation wavelength was 330 nm, and the emission wavelength—420 nm. All samples (assayed hydroxamic acids and controls) were incubated in separate plate wells at room temperature for 1 hr in the presence of 4 μM of MMP substrate (II). In the absence of MMP inhibitory activity, substrate II was cleaved at the Gly-Leu bond resulting in an increase of relative fluorescence. Inhibition was observed as a reduced rate of this increase in relative fluorescence. The various hydroxamic acids were analyzed using a single low enzyme concentration with a single substrate concentration fixed at or below the Km. This protocol is a modification of method by Knight et al., FEBS Lett., 296(3), 263-266 (1992). Apparent inhibitory constants were determined by non-linear regression of reaction velocity as a function of inhibitor and enzyme concentration using Morrison's equation, as described by Kuzmic, Anal. Biochem. 286, 45-50 (2000). […] Since the substrate concentration was chosen to be at or below the Km, the apparent Ki's from this analysis were reported as Ki's without correction for the influence of substrate.

[7] = target: T4, MMP-13; test: as above; conditions: read-out: MMP-13 Ki
Procedure: as §1, §2
The MMP-13 was obtained as a proenzyme from a full-length cDNA clone using baculovirus, as described by V. A. Luckow, “Insect Cell Expression Technology,” Protein Engineering: Principles and Practice, pp. 183-218 (edited by J. L. Cleland et al., Wiley-Liss, Inc., 1996). The expressed proenzyme was first purified over a heparin agarose column, and then over a chelating zinc chloride column. The proenzyme was then activated by APMA for use in the assay. […] See also, O'Reilly et al, Baculovirus Expression Vectors: A Laboratory Manual (W.H. Freeman and Co., New York, N.Y., 1992). See also, King et al., The Baculovirus Expression System: A Laboratory Guide (Chapman & Hall, London, England, 1992).
as §3, §4, §5
The assays from which the Ki determinations were made were performed as follows. The assayed hydroxamic acid samples were incubated in separate wells of untreated white polystyrene plates (Nunc Nalgene International, Rochester, N.Y.), and analyzed on a Tecan SpectraFlour Plus plate reader. The excitation wavelength was 330 nm, and the emission wavelength—420 nm. All samples (assayed hydroxamic acids and controls) were incubated in separate plate wells at room temperature for 1 hr in the presence of 4 μM of MMP substrate (II). In the absence of MMP inhibitory activity, substrate II was cleaved at the Gly-Leu bond resulting in an increase of relative fluorescence. Inhibition was observed as a reduced rate of this increase in relative fluorescence. The various hydroxamic acids were analyzed using a single low enzyme concentration with a single substrate concentration fixed at or below the Km.

[8] = Table 9, read-out: MMP-1 Ki (IC-50)
[9] = Table 9, read-out: MMP-2 Ki (IC-50)
[10] = Table 9, read-out: MMP-9 Ki (IC-50)
[11] = Table 9, read-out: MMP-13 Ki (IC-50)
[12] = Table 9, read-out: MMP-14 Ki (IC-50)

SMILES	Ki [1, 8]	Ki [2, 9]	Ki [3, 10]	Ki [4, 11]	Ki [5, 12]	further results
CCOCCCCCC1CCN(S(=O)(=O)C2(C(=O)NO)CCOCC2)CC1 [Example A38, 4-[4-(5-ethoxy-pentyl)-piperidine-1-sulfonyl]-tetrahydro-pyran-4-carboxylic Acid Hydroxyamide]	–	–	–	–	–	Ki ([1]; Table 8, read-out: MMP-1 Ki): 4580 nM; Ki ([2]; Table 8, read-out: MMP-2 Ki): 0.72 nM; Ki ([3]; Table 8, read-out: MMP-9 Ki): 2.25 nM; Ki ([4]; Table 8, read-out: MMP-13 Ki): 0.52 nM; Ki ([5]; Table 8, read-out: MMP-14 Ki): 1190 nM
C/C(COc1ccc(C2CCN(S(=O)(=O)C3(C(=O)NO)CCOCC3)CC2)nc1)=N/O [Example A169]	5370 nM	3.5 nM	10.2 nM	4.53 nM	9300 nM	–
O=C(NO)C1(S(=O)(=O)N2CCN(c3nnn(Cc4ccccc4)n3)CC2)CCOCC1 [Example A114]	5410 nM	0.38 nM	0.94 nM	0.8 nM	1150 nM	–
O=C(CCCCC1CCN(S(=O)(=O)C2(C(=O)NO)CCOCC2)CC1)N1CCOCC1 [Example A85]	3420 nM	82.3 nM	553 nM	3 nM	> 10000 nM	–
O=C(NCCCCC1CCN(S(=O)(=O)C2(C(=O)NO)CCOCC2)CC1)C(=O)c1cccs1 [Example A108]	630 nM	3.25 nM	55.5 nM	0.16 nM	4520 nM	–
CCCCC#Cc1ccc(C2CCN(S(=O)(=O)C3(C(=O)NO)CCOCC3)CC2)nc1 [Example A137]	1260 nM	0.37 nM	0.32 nM	0.09 nM	221 nM	–
CN(C(=O)CCCC1CCN(S(=O)(=O)C2(C(=O)NO)CCOCC2)CC1)C1CCCCC1 [Example A144]	> 10000 nM	958 nM	1520 nM	22.2 nM	> 10000 nM	–
CCCC#Cc1ccc(C2CCN(S(=O)(=O)C3(C(=O)NO)CCOCC3)CC2)nc1 [Example A139]	2340 nM	0.5 nM	0.15 nM	0.17 nM	401 nM	–
O=C(NO)C1(S(=O)(=O)N2CCN(c3ccc(-c4cccnc4)c(F)c3)CC2)CCOCC1 [Example A195]	1570 nM	0.18 nM	6.81 nM	0.34 nM	2430 nM	–
O=C(CCCCN1CCN(S(=O)(=O)C2(C(=O)NO)CCOCC2)CC1)c1ccc(OC(F)(F)F)cc1 [Example A150]	> 10000 nM	243 nM	1030 nM	19.8 nM	> 10000 nM	–
CCCCc1cnc(C2CCN(S(=O)(=O)C3(C(=O)NO)CCOCC3)CC2)nc1 [Example A196]	> 10000 nM	70 nM	2.02 nM	21.8 nM	> 10000 nM	–
O=C(NO)C1(S(=O)(=O)N2CCC(N3CCN(c4ccc(F)cc4)CC3)CC2)CCOCC1 [Example A197]	> 10000 nM	770 nM	1620 nM	–	> 10000 nM	–
Cc1cccc(-c2csc(N3CCN(S(=O)(=O)C4(C(=O)NO)CCOCC4)CC3)n2)c1 [Example 414]	–	–	–	–	–	Ki ([6]; value outside parentheses): 2660 nM; Ki ([7]; value outside parentheses): 4190 nM
CCc1ccc(N2CCN(S(=O)(=O)C3(C(=O)NO)CCOCC3)CC2)nc1 [Example 137]	–	–	–	–	–	Ki ([6]; value not in parenthesis): 0.37 nM; Ki ([7]; value not in parenthesis): 0.75 nM
